# Where a name gives a salt, the structure may show the parent alone.
# Columns and labels:
# [1] = Evaluation of sweetness (1)/(2): presence or absence of sweetness judged by examiners; assay type: in vivo, human
# Description: Trans-3-octenyl sulfate was dissolved in water to be 1 wt %, which was taken as a test sample. Six examiners kept 50 μL of the prepared test sample in their mouth, and then drunk some water, and judged for presence or absence of sweetness.
# Cis-3-octenyl sulfate was dissolved in water to 1 wt %, which was taken as a test sample. Four examiners kept 50 μL of the prepared test sample in their mouth, and then drunk some water, and judged presence or absence of sweetness.
# [2] = Evaluation of sweetness (3)/(4): sweetness intensity over time against sucrose standard solutions; assay type: in vivo, human
# Description: (§1) To seven examiners, 4 kinds of 10 mL aqueous sucrose standard solutions (2.5, 5.0, 7.5 and 10.0 wt %) were presented. The examiners kept each of the solutions in their mouth for 5 seconds or so, and then spat the solution out, and were asked to consider the sweetness intensity at that time (0 to 15) to be 2.5, 5, 7.5 and 10, respectively. Next, the examiners kept 10 mL solution of 10 mM trans-3-octenyl sulfate in their mouth for 5 seconds or so, and then spat the solution out, and compared the sweetness intensity at that time with that of the aqueous sucrose standard solution, and evaluated the sweetness intensity with a number in a range of 0 to 15. Then, the examiners kept 10 mL pure water for 5 minutes at an interval of 30 seconds, and then spat the solution out, and evaluated the sweetness intensity at that time in the same manner.
# as §1, with “four” for “4”, “cis-3-octenyl” for “trans-3-octenyl”, “water in their mouth” for “water”
# [3] = system: oocytes not expressing ENaC; assay: Control: inward current in oocytes not expressing ENaC; assay type: cell-based, Xenopus; conditions: same procedure
# Description: Inhibition activity of ENaC expressed in Xenopus oocytes was measured according to the method described in “The journal of biological chemistry, 284 (2): pages 792-798 (2009)”. Specifically, trans-3-octenyl sulfate was added to oocytes expressed with ENaC complex, and the activity of ENaC was analyzed electrophysiologically in accordance with the procedures described below.
# Two micro-glass electrodes were inserted into the oocyte, and the membrane potential was fixed at −60 mV. At this time, Na^+ ion influx induced by ENaC complex in a constantly active state was measured with replacement to change of the current amount. Namely, in 115 mM NaCl solution (115 mM NaCl, 2.5 mM KCl, 1.8 mM CaCl2, 1 mM NaHCO3, 1 mM MgCl2 and 10 mM HEPES, pH 7.4) and under circumstances where inward current was caused by the oocytes, trans-3-octenyl sulfate dissolved in the same solution was administered.
# This effect was similar to that of an existing ENaC inhibitor amiloride.
# [4] = 1 wt % in water, 50 μL kept in mouth, then water (13 ml), six examiners (trans), four examiners (cis)
compound,measurement,setting,value
CCCC/C=C/CCOS(=O)(=O)O [trans-3-octenyl sulfate],No sweetness felt (number of examiners),[1]; [4],0
same,Sweetness felt (number of examiners),[1]; [4],6
same,Duration of sweetness,"[1]; 1 wt %, 50 μL, then water",the sweetness lasted for a certain time
same,Examiners who recognized the sweetness by virtue of intake of water,"[2]; 10 mL of 10 mM solution, then pure water every 30 seconds",Seven out of the seven
same,Duration of sweetness,"[2]; 10 mL of 10 mM solution, then pure water every 30 seconds for 5 minutes",the sweetness lasted for a certain time
same,Sweetness intensity (mean),"[2]; Time 0 minute, 10 mL of 10 mM solution kept 5 seconds, scale 0 to 15 vs sucrose standards, seven examiners",0.0
same,Sweetness intensity (mean),"[2]; Time 0.5 minute, on keeping 10 mL pure water, after 10 mM solution, scale 0 to 15",1.7
same,Sweetness intensity (mean),"[2]; Time 1 minute, on keeping 10 mL pure water, after 10 mM solution, scale 0 to 15",3.6
same,Sweetness intensity (mean),"[2]; Time 1.5 minute, on keeping 10 mL pure water, after 10 mM solution, scale 0 to 15",3.9
same,Sweetness intensity (mean),"[2]; Time 2 minute, on keeping 10 mL pure water, after 10 mM solution, scale 0 to 15",3.6
same,Sweetness intensity (mean),"[2]; Time 2.5 minute, on keeping 10 mL pure water, after 10 mM solution, scale 0 to 15",3.0
same,Sweetness intensity (mean),"[2]; Time 3 minute, on keeping 10 mL pure water, after 10 mM solution, scale 0 to 15",2.1
same,Sweetness intensity (mean),"[2]; Time 3.5 minute, on keeping 10 mL pure water, after 10 mM solution, scale 0 to 15",1.1
same,Sweetness intensity (mean),"[2]; Time 4 minute, on keeping 10 mL pure water, after 10 mM solution, scale 0 to 15",0.8
same,Sweetness intensity (mean),"[2]; Time 4.5 minute, on keeping 10 mL pure water, after 10 mM solution, scale 0 to 15",0.5
same,Sweetness intensity (mean),"[2]; Time 5 minute, on keeping 10 mL pure water, after 10 mM solution, scale 0 to 15",0.6
same,Effect on inward current in oocytes not expressing ENaC,[3],not recognized

# From patent publication US10364216B2, “Alkenyl sulfate ester or salt thereof” (Kao Corporation, priority 2013, dated 2019)
